In patent publication US20180116983A1, “COMPOUNDS FOR TREATING DISORDERS ASSOCIATED WITH BK CHANNEL MODULATION” (Canbex Therapeutics Limited, priority 2015, published 2018):
Entries after “also recorded” stand apart in the source; their conditions may differ.

What was measured:
[1] = Tolerability on repeated dosing; type: in vivo, mouse
BK channel = BK channel (Homo sapiens, UniProt Q12791); assay: Inside-out patch clamp (single channel) on EA.hy926 cells; type: cell-based; set-up: The human umbilical vein derived endothelial cell line, EA.hy926; endogenous in cells; host or cells: EA.hy926 human endothelial cell line
Protocol: The human umbilical vein derived endothelial cell line, EA.hy926 (Edgell et al., Proc Natl Acad Sci USA. 1983 June; 80(12): 3734-7) at passage >45 was grown in DMEM containing 10% FCS and 1% HAT (5 mM hypoxanthine, 20 μM aminopterin, 0.8 mM thymidine) and cells were maintained in an incubator at 37° C. in 5% CO2 atmosphere. Cells were plated on either 10 mm (for patch-clamp recordings) or 30 mm glass cover slips (for Ca^2+ measurements).
Single-channel recordings were obtained from excised inside-out membrane patches in symmetrical solutions. The pipettes were filled with (in mM) 140 KCl, 10 HEPES, 1 MgCl2, 5 EGTA, 4,931 CaCl2 with pH 7.2 by adding KOH (i.e. 10 μM free Ca^2+, G. Droogmans, Leuven, Belgium; ftp://ftp.cc.kuleuven.ac.be/pub/droodmans/cabuf.zip). Cells were perfused with a standard bath solution containing (in mM) 140 NaCl, 5 KCl, 1.2 MgCl2, 10 HEPES, 10 glucose, 2.4 CaCl2. Following gigaseal formation, bath solution was switched to the following (in mM) 140 KCl, 10 HEPES, 1 MgCl2, 5 EGTA and a desired free Ca^2+ concentration which was adjusted by adding different amounts of CaCl2 calculated by the program CaBuf. pH was adjusted to 7.2 by adding KOH. Membrane currents and potential were recorded using a List EPC7 amplifier (List, Germany) and pClamp (version 8.2, Axon Instruments) software.

[2] = Known efficacious oral dose (model not stated); type: in vivo; settings: p.o.
[3] = system: C57BL/6.Fmr1 knockout mice; assay: Open field test in Fmr1 knockout mice; type: in vivo, mouse; settings: 2 mg/kg i.v.
Protocol: (§1) Animals: C57BL/6.J. Fmr1-K02 mice, which have a deletion of the promoter and exonl of the Fmr1 gene (Mientjes et al., 2006) and C57BL/6J wild type (WT) were originated from the Jackson laboratory (Ann Harbor, USA). Mice were housed in groups (4-6 per cage) and all animals were provided with ad libitum food and water unless otherwise stated. Mice were maintained on a 12 h light/12 h dark cycle (lights off 19:00 to 7:00) in a temperature-controlled environment (21±1° C.). Testing was conducted in the light phase. Mice were housed in commercial cages and experiments were performed in line with the United Kingdom Animals (Scientific procedures) Act 1986. […]
(§2) Drug Treatment: VSN16R was dissolved in saline for injection intravenously via a tail vein using 2 mg/kg a 30 g needle in a volume of 0.1 ml. […] The eye condition (runny eyes or porphyria, ptosis), gait appearance, tremor, tail tone, reactivity to handling was assessed to detect adverse behavioural effect.
Open field: The open field apparatus was used to test multiple processes including anxiety/hyperactivity and habituation to a novel environment, in which decreased exploration as a function of repeated exposure to the same environment is taken as an index of memory. […] The number of squares entered (whole body) (locomotor activity) and rears (both front paws off the ground, but not as part of grooming) were counted. […]

mouse vas deferens = assay: βγ-methylene ATP-induced contraction of mouse vas deferens; settings: 100 nM; electrically unstimulated vasa deferentia
Protocol: Mouse vas deferens were treated with either DMSO vehicle or 100 nM VSN16R 30 min before the first organ bath injection of various concentrations of βγ-methylene ATP into the organ bath (FIG. 16). The results represent the mean±SEM of βγ-methylene ATP-induced increases in tension (expressed in grams) of electrically unstimulated vasa deferentia. (n=6/group).

[4] = target: T1, BKCa channels formed by the exon-less alpha subunit (Homo sapiens, UniProt Q12791); assay: Whole-cell BKCa current in HEK293 cells expressing the alpha subunit alone; type: cell-based; settings: 20 μM
T1 construct: expressed in transfected cells; host or cells: HEK293

[5] = system: C57BL/6.Fmr1 knockout mice; assay: Marble burying in Fmr1 knockout mice; type: in vivo, mouse; settings: 2 mg/kg i.v., 30 min
Protocol: as §1, §2
Marble burying: Mice will dig as part of their typical behaviours and this was detected using transparent plastic cages were filled with a 10 cm deep layer of sawdust on top of which 10 glass marbles were placed in two rows. Each animal was left undisturbed in such a cage for 30 min, after which the number of marbles that were buried to at least ⅔ of their depth was recorded. […]

Sequence of BK channel (Q12791 1-1178 isoform Q12791-5): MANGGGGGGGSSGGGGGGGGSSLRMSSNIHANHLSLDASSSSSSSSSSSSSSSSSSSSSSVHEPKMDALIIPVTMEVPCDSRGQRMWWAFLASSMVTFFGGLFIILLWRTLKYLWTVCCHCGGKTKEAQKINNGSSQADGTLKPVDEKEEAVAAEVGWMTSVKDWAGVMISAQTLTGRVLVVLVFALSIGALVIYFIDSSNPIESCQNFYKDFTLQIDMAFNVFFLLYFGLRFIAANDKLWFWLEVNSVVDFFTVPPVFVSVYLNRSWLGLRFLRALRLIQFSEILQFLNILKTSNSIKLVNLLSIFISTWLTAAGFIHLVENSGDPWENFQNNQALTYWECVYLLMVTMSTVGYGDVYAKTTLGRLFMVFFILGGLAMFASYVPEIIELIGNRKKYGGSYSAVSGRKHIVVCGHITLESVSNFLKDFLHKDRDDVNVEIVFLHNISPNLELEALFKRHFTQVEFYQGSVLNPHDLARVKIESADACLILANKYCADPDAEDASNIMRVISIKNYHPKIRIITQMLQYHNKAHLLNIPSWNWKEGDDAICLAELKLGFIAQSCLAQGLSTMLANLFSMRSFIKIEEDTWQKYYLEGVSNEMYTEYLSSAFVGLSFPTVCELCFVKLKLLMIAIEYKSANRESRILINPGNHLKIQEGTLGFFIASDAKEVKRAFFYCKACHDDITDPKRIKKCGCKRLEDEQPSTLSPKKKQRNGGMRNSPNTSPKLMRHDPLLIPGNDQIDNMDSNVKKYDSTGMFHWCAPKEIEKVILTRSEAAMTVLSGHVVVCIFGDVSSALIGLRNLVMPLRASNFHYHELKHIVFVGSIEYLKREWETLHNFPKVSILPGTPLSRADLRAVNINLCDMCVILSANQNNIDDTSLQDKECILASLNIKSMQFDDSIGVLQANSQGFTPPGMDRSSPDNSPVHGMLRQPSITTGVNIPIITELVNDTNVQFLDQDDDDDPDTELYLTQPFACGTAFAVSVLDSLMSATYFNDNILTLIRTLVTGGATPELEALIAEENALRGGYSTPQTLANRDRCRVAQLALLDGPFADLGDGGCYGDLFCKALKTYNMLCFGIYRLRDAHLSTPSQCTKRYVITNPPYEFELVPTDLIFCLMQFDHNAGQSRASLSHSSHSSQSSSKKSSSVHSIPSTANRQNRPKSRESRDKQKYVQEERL
Sequence of BK channel (Q86W47 whole entry partner): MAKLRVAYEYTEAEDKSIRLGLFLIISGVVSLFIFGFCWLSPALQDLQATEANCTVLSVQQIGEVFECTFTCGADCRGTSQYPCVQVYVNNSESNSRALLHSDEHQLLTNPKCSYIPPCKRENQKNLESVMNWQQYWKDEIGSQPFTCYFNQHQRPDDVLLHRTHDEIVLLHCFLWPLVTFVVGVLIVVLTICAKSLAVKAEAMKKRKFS
T1 sequence (Q12791 1-1178 isoform Q12791-5): as the sequence (Q12791 1-1178 isoform Q12791-5) above

C[C@H](CO)NC(=O)c1cccc(/C=C\CCCC(=O)N(C)C)c1 [VSN16R]
tolerability ([1]; 2 mg/kg i.v. over 2 weeks): well tolerated and no instances of toxicity were observed; also recorded: well tolerated | tolerable dose ([1]; daily, p.o.): ≥ 1000 mg/kg | open probability of BKca channels (BK channel; EA.hy926 cells): increases the open probability of BKca channels | activation of the response of the channel (BK channel; human EA.hy926 cells, calcium dependent): voltage and calcium dependent; also recorded: activation of the response of the channel | known efficacy dose [2]: ≥ 1 mg/kg | open field activity (hyperactivity, memory) ([3]; Fmr1 knockout mice, baseline, 10 min, 24 h, 2 mg/kg): inhibits the hyperactivity and memory deficient; also recorded: movement behaviours were comparable to that observed in wildtype mice; also recorded: normalise the memory and exploratory behaviours to the level of wildtype mice | open field activity ([3]; wildtype mice): exhibit comparable movement behaviour to vehicle-treated wildtype mice | effect on βγ-methylene ATP-induced contraction (mouse vas deferens): does not affect | enhancement of BKCa current ([4]; HEK293, steps −40 mV to +70 mV, 200 nM calcium): not responsive; also recorded: does not act on BKCa channels formed by the exon-less alpha subunit; also recorded: did not display any enhancing effect on the current; also recorded: did not affect the BKCa current at any voltage; also recorded: did not enhance BKCa currents | activation voltage / voltage-dependence of activation of BKCa current ([4]; intracellular calcium 1 μM, 200 nM, nominally 0 M): did not shift the voltage-depence of activation; also recorded: did not affect the activation voltage of BKCa current | digging behaviour (marbles buried) [5]: inhibits the development of Exaggerated Digging Behaviours; also recorded: significantly (P<0.001) limited the exaggerated behaviour
